Data: paper PMC10796436, “Peptidyl nitroalkene inhibitors of main protease rationalized by computational and crystallographic investigations as antivirals against SARS-CoV-2” (Communications Chemistry, 2024)
Where “and” joins values, the source holds several entries; their conditions need not be identical. Equal values may be shown once.

Columns and labels:
SARS-CoV-2 M^pro [1] = target: T1, SARS-CoV-2 M^pro (Severe acute respiratory syndrome coronavirus 2, UniProt P0DTD1); assay: biochemical; conditions: M^pro from pMal-M^pro vector
SARS-CoV-2 M^pro [2] = target: T1, SARS-CoV-2 M^pro; assay: Mpro FRET inhibition, continuous fluorometric assay (Fluorolog-3), enzyme from pET21-M^pro vector; type: biochemical; conditions: read-out: Ki (μM)^b
SARS-CoV-2 = assay: microbe, parasite or virus in culture; type: cell-based; conditions: for virus titer Mean (%): mean of Exp.1-3; for virus titer (%) of conc 0 / virus titer (pfu/ml): single experiments
[3] = target: human matriptase (MT-SP1) (Homo sapiens, UniProt Q9Y5Y6); assay: Matriptase inhibition, fluorometric assay; type: biochemical; conditions: 20 μM
[4] = target: Zika Virus NS2B/NS3 (bZiPro) (Zika virus, UniProt A0A024B7W1); assay: Zika virus protease inhibition, fluorometric assay; type: biochemical; conditions: 20 μM
cathepsin L (CatL) = target: T2, cathepsin L (CatL) (Homo sapiens, UniProt P07711); assay: Cathepsin L inhibition, fluorometric assay; type: biochemical
T2 construct: purchased Calbiochem (Merck Millipore)

M^pro = M^pro (Severe acute respiratory syndrome coronavirus 2, UniProt P0DTD1); assay: biochemical; type: binding

Zika Virus NS2B/NS3 (bZiPro), sequence (A0A024B7W1 1425-1464): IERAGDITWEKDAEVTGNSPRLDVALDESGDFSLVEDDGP
Zika Virus NS2B/NS3 (bZiPro), sequence (A0A024B7W1 1503-1680): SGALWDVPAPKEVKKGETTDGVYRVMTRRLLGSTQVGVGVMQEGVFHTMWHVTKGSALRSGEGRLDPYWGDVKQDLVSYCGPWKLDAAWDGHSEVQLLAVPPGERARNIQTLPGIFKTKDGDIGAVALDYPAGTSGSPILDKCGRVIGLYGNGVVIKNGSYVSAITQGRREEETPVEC
human matriptase (MT-SP1), sequence (Q9Y5Y6 615-855 limits assumed, other chains not shown): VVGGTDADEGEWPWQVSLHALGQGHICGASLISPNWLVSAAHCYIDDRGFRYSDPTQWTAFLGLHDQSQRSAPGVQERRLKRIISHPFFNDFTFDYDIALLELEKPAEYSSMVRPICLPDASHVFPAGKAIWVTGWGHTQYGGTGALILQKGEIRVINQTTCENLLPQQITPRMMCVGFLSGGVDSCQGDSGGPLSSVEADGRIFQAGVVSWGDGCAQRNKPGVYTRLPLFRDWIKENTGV
T2 sequence (P07711 114-288 limits assumed): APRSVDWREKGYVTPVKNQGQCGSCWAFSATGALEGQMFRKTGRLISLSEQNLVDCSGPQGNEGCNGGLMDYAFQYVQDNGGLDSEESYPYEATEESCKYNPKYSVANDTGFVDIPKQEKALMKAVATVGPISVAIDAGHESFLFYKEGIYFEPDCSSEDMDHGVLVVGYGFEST
T2 sequence (P07711 292-333 limits assumed): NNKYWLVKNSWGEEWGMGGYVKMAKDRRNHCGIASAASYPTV

Compound: CC(C)C[C@H](NC(=O)OCc1ccccc1)C(=O)N[C@H](/C=C/[N+](=O)[O-])C[C@@H]1CCNC1=O [FGA147]
- Ki (SARS-CoV-2 M^pro [1]): 2.18 ± 0.19 µM
- Ki (SARS-CoV-2 M^pro [2]): 1.33 ± 0.05 µM
- EC50 (SARS-CoV-2; Severe acute respiratory syndrome coronavirus 2, 24 h, Huh-7-ACE2, 24h p.t., MOI=0.1): 1.9 µM
- virus titer Mean (%) (SARS-CoV-2; conc 0.1): 153.333%
- virus titer (%) of conc 0 (SARS-CoV-2; conc 0.1): 160% and 180% and 120%
- virus titer (pfu/ml) (SARS-CoV-2; conc 0.1): 1600000 pfu/ml and 1800000 pfu/ml and 2400000 pfu/ml
- virus titer Mean (%) (SARS-CoV-2; conc 0.5): 83.3333%
- virus titer (pfu/ml) (SARS-CoV-2; conc 0.5): 1000000 pfu/ml and 1200000 pfu/ml and 600000 pfu/ml
- virus titer Mean (%) (SARS-CoV-2; conc 1): 85%
- virus titer Mean (%) (SARS-CoV-2; conc 5): 0.5017%
- virus titer (%) of conc 0 (SARS-CoV-2; conc 5): 1% and 0.365% and 0.14%
- virus titer Mean (%) (SARS-CoV-2; conc 10): 0.08%
- virus titer (%) of conc 0 (SARS-CoV-2; conc 10): 0.04% and 0.15% and 0.05%
- virus titer Mean (%) (SARS-CoV-2; conc 50): 0.025%
- virus titer (%) of conc 0 (SARS-CoV-2; conc 50): 0.06% and 0.012% and 0.003%
- virus titer Mean (%) (SARS-CoV-2; conc 100): 0.01767%
- virus titer (%) of conc 0 (SARS-CoV-2; conc 100): 0.02% and 0.026% and 0.007%
- virus titer (pfu/ml) (SARS-CoV-2; conc 100): 200 pfu/ml and 260 pfu/ml and 140 pfu/ml
- MT-SP1 [3]: n.i. (no inhibition (<10%) was observed at a concentration of 20 μM)
- bZiPro [4]: n.i. (no inhibition (<10%) was observed at a concentration of 20 μM)
- Ki (cathepsin L (CatL)): 1.99 ± 0.107 µM
- Tm of M^pro (M^pro; 25 µM): 46.2 ± 0.1 °C
- change of Tm of M^pro (M^pro; 25 µM): −3.0 ± 0.1 °C
- ΔTm at 25 µM (M^pro; 25 µM, read-out: DTm (°C)): -3 °C
- Tm of M^pro (M^pro; 100 μM): 45.0 ± 0.2 °C
- change of Tm of M^pro (M^pro; 100 μM): −4.2 ± 0.2 °C
- Fraction unfolded (M^pro; 25 mM, 21.5 °C): 0.04278
- Fraction unfolded (M^pro; 25 mM, 22 °C): 0.07148
- Fraction unfolded (M^pro; 25 mM, 22.5 °C): 0.01751
- Fraction unfolded (M^pro; 25 mM, 23 °C): -0.05389
- Fraction unfolded (M^pro; 25 mM, 23.5 °C): -0.01968
- Fraction unfolded (M^pro; 25 mM, 24 °C): 0.09885
- Fraction unfolded (M^pro; 25 mM, 24.5 °C): 0.01751
- Fraction unfolded (M^pro; 25 mM, 25 °C): 0.01414
- Fraction unfolded (M^pro; 25 mM, 25.5 °C): -0.01034
- Fraction unfolded (M^pro; 25 mM, 26 °C): 0.01683
- Fraction unfolded (M^pro; 25 mM, 26.5 °C): 0.04278
- Fraction unfolded (M^pro; 25 mM, 27 °C): 0.07148
- Fraction unfolded (M^pro; 25 mM, 27.5 °C): -0.01421
- Fraction unfolded (M^pro; 25 mM, 28 °C): -0.05389
- Fraction unfolded (M^pro; 25 mM, 28.5 °C): -0.01968
- Fraction unfolded (M^pro; 25 mM, 29 °C): 0.09885
- Fraction unfolded (M^pro; 25 mM, 29.5 °C): 0.01751
- Fraction unfolded (M^pro; 25 mM, 30 °C): -0.01678
- Fraction unfolded (M^pro; 25 mM, 30.5 °C): 0.01948
- Fraction unfolded (M^pro; 25 mM, 31 °C): 0.07312
- Fraction unfolded (M^pro; 25 mM, 31.5 °C): 0.01304
- Fraction unfolded (M^pro; 25 mM, 32 °C): 0.01813
- Fraction unfolded (M^pro; 25 mM, 66.5 °C): 1.064
- Fraction unfolded (M^pro; 25 mM, 67 °C): 1.093
- Fraction unfolded (M^pro; 25 mM, 67.5 °C): 1.004
- Fraction unfolded (M^pro; 25 mM, 68 °C): 1.064
- Fraction unfolded (M^pro; 25 mM, 68.5 °C): 0.9281
- Fraction unfolded (M^pro; 25 mM, 69 °C): 1.033
- Fraction unfolded (M^pro; 25 mM, 69.5 °C): 0.9909
- Fraction unfolded (M^pro; 25 mM, 70 °C): 0.9575
- Fraction unfolded (M^pro; 25 mM, 70.5 °C): 1.011
- Fraction unfolded (M^pro; 25 mM, 71 °C): 1.05
- Fraction unfolded (M^pro; 25 mM, 71.5 °C): 1.061
- Fraction unfolded (M^pro; 25 mM, 72 °C): 0.9314
- Fraction unfolded (M^pro; 25 mM, 72.5 °C): 1.024
- Fraction unfolded (M^pro; 25 mM, 73 °C): 1.027
- Fraction unfolded (M^pro; 25 mM, 73.5 °C): 1.08
- Fraction unfolded (M^pro; 25 mM, 74 °C): 1
- Fraction unfolded (M^pro; 25 mM, 74.5 °C): 0.9793
- Fraction unfolded (M^pro; 25 mM, 75 °C): 0.8934
- Fraction unfolded (M^pro; 25 mM, 75.5 °C): 0.9799
- Fraction unfolded (M^pro; 25 mM, 76 °C): 1.027
- Fraction unfolded (M^pro; 25 mM, 76.5 °C): 0.9678
- Fraction unfolded (M^pro; 25 mM, 77 °C): 0.9735
- Fraction unfolded (M^pro; 25 mM, 77.5 °C): 0.9321
- Fraction unfolded (M^pro; 25 mM, 78 °C): 1.0047
- Fraction unfolded (M^pro; 25 mM, 78.5 °C): 1.022
- Fraction unfolded (M^pro; 25 mM, 79 °C): 0.9456
- Fraction unfolded (M^pro; 25 mM, 79.5 °C): 1.012
- Fraction unfolded (M^pro; 25 mM, 80 °C): 0.9456
- Fraction unfolded (M^pro; 100 mM, 21.5 °C): -0.02084
- Fraction unfolded (M^pro; 100 mM, 22 °C): -0.00506
- Fraction unfolded (M^pro; 100 mM, 22.5 °C): 0.01094
- Fraction unfolded (M^pro; 100 mM, 23 °C): 0.02167
- Fraction unfolded (M^pro; 100 mM, 23.5 °C): -0.03337
- Fraction unfolded (M^pro; 100 mM, 24 °C): -0.04925
- Fraction unfolded (M^pro; 100 mM, 24.5 °C): -0.01302
- Fraction unfolded (M^pro; 100 mM, 25 °C): 0.0174
- Fraction unfolded (M^pro; 100 mM, 25.5 °C): 0.07455
- Fraction unfolded (M^pro; 100 mM, 26 °C): -0.07318
- Fraction unfolded (M^pro; 100 mM, 26.5 °C): 0.02179
- Fraction unfolded (M^pro; 100 mM, 27 °C): -0.00134
- Fraction unfolded (M^pro; 100 mM, 27.5 °C): 0.02966
- Fraction unfolded (M^pro; 100 mM, 28 °C): -0.07997
- Fraction unfolded (M^pro; 100 mM, 28.5 °C): -0.01931
- Fraction unfolded (M^pro; 100 mM, 29 °C): 0.05111
- Fraction unfolded (M^pro; 100 mM, 29.5 °C): 0.02685
- Fraction unfolded (M^pro; 100 mM, 30 °C): 0.06732
- Fraction unfolded (M^pro; 100 mM, 30.5 °C): -0.02735
- Fraction unfolded (M^pro; 100 mM, 31 °C): 0.01656
- Fraction unfolded (M^pro; 100 mM, 31.5 °C): -0.02084
- Fraction unfolded (M^pro; 100 mM, 32 °C): -0.00506
- Fraction unfolded (M^pro; 100 mM, 66.5 °C): 1.07
- Fraction unfolded (M^pro; 100 mM, 67 °C): 1.013
- Fraction unfolded (M^pro; 100 mM, 67.5 °C): 0.9992
- Fraction unfolded (M^pro; 100 mM, 68 °C): 1.02
- Fraction unfolded (M^pro; 100 mM, 68.5 °C): 1.071
- Fraction unfolded (M^pro; 100 mM, 69 °C): 0.9861
- Fraction unfolded (M^pro; 100 mM, 69.5 °C): 1.008
- Fraction unfolded (M^pro; 100 mM, 70 °C): 1.064
- Fraction unfolded (M^pro; 100 mM, 70.5 °C): 0.8899
- Fraction unfolded (M^pro; 100 mM, 71 °C): 1.057
- Fraction unfolded (M^pro; 100 mM, 71.5 °C): 1.048
- Fraction unfolded (M^pro; 100 mM, 72 °C): 1.1085
- Fraction unfolded (M^pro; 100 mM, 72.5 °C): 1.099
- Fraction unfolded (M^pro; 100 mM, 73 °C): 0.9672
- Fraction unfolded (M^pro; 100 mM, 73.5 °C): 1.047
- Fraction unfolded (M^pro; 100 mM, 74 °C): 0.9312
- Fraction unfolded (M^pro; 100 mM, 74.5 °C): 1.062
- Fraction unfolded (M^pro; 100 mM, 75 °C): 1.063
- Fraction unfolded (M^pro; 100 mM, 75.5 °C): 1.018
- Fraction unfolded (M^pro; 100 mM, 76 °C): 0.9202
- Fraction unfolded (M^pro; 100 mM, 76.5 °C): 1.013
- Fraction unfolded (M^pro; 100 mM, 77 °C): 0.9957
- Fraction unfolded (M^pro; 100 mM, 77.5 °C): 1.0714
- Fraction unfolded (M^pro; 100 mM, 78 °C): 0.8845
- Fraction unfolded (M^pro; 100 mM, 78.5 °C): 0.9237
- Fraction unfolded (M^pro; 100 mM, 79 °C): 1.0367
- Fraction unfolded (M^pro; 100 mM, 79.5 °C): 0.9498
- Fraction unfolded (M^pro; 100 mM, 80 °C): 0.9799
